Reference: patent EP0197661A2, “Low-calorie sugar composition” (Takeda Chemical Industries, Ltd., priority 1985, dated 1986)
Marks after values point to notes of the source that are not given here.

System: Male rats (Jcl:SD strain)
Assay: Oral sucrose loading in fasted rats with varying dosage of AO-128; blood glucose level
Format: in vivo
Details: rats fasted 20 hours, mean ± standard deviation
Protocol: Male rats (Jcl:SD strain, purchased from Clea Japan) aged 6 weeks, which had been raised on commercially available pelleted rat chow (CE-2®, Clea Japan), were fasted for 20 hours and, then, administered orally with 2.5 g/kg of sucrose containing a varying dosage of AO-128. The blood glucose level was determined 30, 60 and 120 minutes after administration.

[1] = AO-128 0.1mg/Kg with 2.5 g/kg sucrose orally
[2] = AO-128 0.2mg/Kg with 2.5 g/kg sucrose orally
[3] = AO-128 0.4mg/Kg with 2.5 g/kg sucrose orally

## OCC(CO)N[C@H]1C[C@](O)(CO)[C@@H](O)[C@H](O)[C@H]1O [AO-128, N-(l,3-dihydroxy-2-propyl)valiolamine]
[1]
  Blood glucose level 0 min.: 69 ± 4 mg/dL
  Blood glucose level 60 min.: 101±2^a mg/dℓ
  Blood glucose level 120 min.: 88±3^a mg/dℓ
  Delta glucose area: 52±5^b mg/dℓ·hr
[2]
  Blood glucose level 30 min.: 102±6^b mg/dℓ
  Delta glucose area: 38±7^a mg/dℓ·hr
[3]
  Blood glucose level 0 min.: 67 ± 4 mg/dL
  Blood glucose level 30 min.: 79±2^a mg/dℓ
  Blood glucose level 60 min.: 77±5^a mg/dℓ
  Blood glucose level 120 min.: 71±5^a mg/dℓ
